Test results reported in publication PMC6155272, “Chroman-4-One Derivatives Targeting Pteridine Reductase 1 and Showing Anti-Parasitic Activity” (Molecules : A Journal of Synthetic Chemistry and Natural …, 2017).

Experiments:
Aurora B kinase = biological target: T1, Aurora B kinase (Homo sapiens, UniProt Q96GD4); assay: Aurora B kinase assay (ADP-Glo); format: biochemical
T1 construct: purchased Promega
Description: This assay made use of the ADP-Glo Kinase Enzyme System from Promega (Madison, AL, USA), which is a bioluminescent assay that employs firefly luciferase in a coupled-enzyme assay format to enable detection of adenosine diphosphate (ADP) levels from ATPase assays.

CYP2D6 = biological target: T2, CYP2D6 (Homo sapiens, UniProt P10635); assay: Cytochrome P450 2D6 assay (P450-Glo); format: in vitro ADME; details: for inhibition at 10 µM: human
T2 construct: purchased Promega; host or cells: baculovirus-infected insect cells
T2 sequence (P10635 whole entry): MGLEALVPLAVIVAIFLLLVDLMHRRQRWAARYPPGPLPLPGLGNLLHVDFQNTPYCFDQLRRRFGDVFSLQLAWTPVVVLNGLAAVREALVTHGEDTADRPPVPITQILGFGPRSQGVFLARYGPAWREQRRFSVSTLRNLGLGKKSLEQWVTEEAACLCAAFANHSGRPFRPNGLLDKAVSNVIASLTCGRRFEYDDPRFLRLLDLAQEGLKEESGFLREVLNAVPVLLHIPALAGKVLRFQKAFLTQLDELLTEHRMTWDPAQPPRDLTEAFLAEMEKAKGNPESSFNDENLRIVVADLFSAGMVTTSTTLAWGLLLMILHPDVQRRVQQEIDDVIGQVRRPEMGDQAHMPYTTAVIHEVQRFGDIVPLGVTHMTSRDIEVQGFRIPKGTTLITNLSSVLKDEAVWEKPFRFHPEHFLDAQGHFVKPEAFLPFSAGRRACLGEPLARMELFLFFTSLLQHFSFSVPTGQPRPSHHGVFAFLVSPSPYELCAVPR
Description: (§1) These assays made use of the PromegaP450-Glo™ (Madison, AL, USA) assay platform. Each CYP450 assay includes microsomal preparations of cytochromes from baculovirus-infected insect cells.

[1] = Cytotoxicity against THP-1 macrophages (MTT); format: cell-based; details: human, THP-1-derived macrophages; THP-1 macrophage-like cells; NOAEL = no observed adverse effect level; read-out: CC50 ± SD or NOAEL
Protocol: The effect of compounds 1–3 on THP-1-derived macrophages was assessed by the colorimetric (MTT) assay (3-(4,5-dimethylthiazol-2-yl)-2,5-diphenyl tetrazolium bromide).

[2] = tested on: L. infantum (MHOM/BR/1972/BH46) intracellular amastigotes; assay: Activity against L. infantum intramacrophage amastigotes (high-content imaging); format: cell-based, Leishmania infantum; details: 50 μM, amastigotes; for inhibition at 50 µM: Leishmania infantum, read-out: % inh. L. infantum (50 μM)
Protocol: […] THP-1 cells were plated onto 384-well plates in Roswell Park Memorial Institute (RPMI) 1640 medium, Hyclone, GE Healthcare Life Sciences (Issaquah, WA, USA) containing 50 ng/mL phorbol 12-myristate 13-acetate (PMA, Sigma-Aldrich, Saint Louis, MS, USA), and incubated for 48 h. Then, 6 day-old promastigotes were added, at a ratio of 50 parasites per each THP-1 cell seeded earlier. After 24 h of infection, negative controls (0.5% DMSO), positive controls (10 μM amphotericin B) or compounds were added to the plate. Assay plates were incubated for 48 h, and then fixed with 4% paraformaldehyde and stained with Draq 5. The Operetta high-content automated imaging system was used to acquire images and the Harmony Software was optimized to quantify the host cell number, the infection ratio and the number of parasites per infected cell. The ratio between infected cells and total number of cells is then calculated, and defined as the Infection Ratio (IR). The raw data for IR values was normalized to negative—DMSO (mock)-treated infected cells—and positive (non-infected cells) controls to determine the normalized antiparasitic activity.

[3] = biological target: T3, Trypanosoma brucei pteridine reductase 1 (TbPTR1) (Trypanosoma brucei brucei, UniProt O76290); assay: TbPTR1 enzyme reporter assay (cytochrome-c reduction, 550 nm); format: biochemical; details: for IC50: compounds 1–3, SD agreed to ±10%; for inhibition at 50 µM: read-out: % Inhibition TbPTR1 (50 μM), 50 μM
T3 construct: made in house
T3 sequence (O76290 1-268): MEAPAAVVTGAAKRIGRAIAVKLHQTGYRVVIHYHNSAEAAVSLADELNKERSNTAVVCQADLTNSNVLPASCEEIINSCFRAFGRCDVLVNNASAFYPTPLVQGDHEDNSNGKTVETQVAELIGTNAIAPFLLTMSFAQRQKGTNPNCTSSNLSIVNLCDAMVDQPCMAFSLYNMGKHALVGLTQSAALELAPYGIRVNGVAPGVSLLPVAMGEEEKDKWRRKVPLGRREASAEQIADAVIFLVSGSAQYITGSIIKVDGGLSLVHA
Protocol: TbPTR1 and LmPTR1 were purified as reported in literature. The enzyme kinetic profile of each selected protein was characterized by a spectrophotometric assay. The experimental assay consists of enzyme kinetic reaction monitoring at 340 nm for a total time of 180 s. The enzyme kinetic activity was measured at steady-state concentration of 7,8-dihydro-L-biopterin (H2B) and NADPH substrates equal to 50 and 120 µM and varying the enzyme concentration in the 0.001–0.006 µM and 0.005–0.010–0.015–0.020–0.025–0.030 µM range for Lm- and TbPTR1, respectively. The resulting kcat values were equal to 0.68 (s^−1) and 7.2 (s^−1) for Tb- and LmPTR1, respectively. For both TbPTR1 and LmPTR1, the Km value evaluation assay for H2B- and NADPH-substrates was performed in the 0.3-0.6–0.9–1.2–2.4–4.8 µM and 3.0–6.0–12.0–40.0–90.0–190.0 µM concentrations range, respectively.
Compounds 1A–3A were evaluated as reported in our previous paper. The novel synthesized compounds 1–3 were tested towards TbPTR1 and LmPTR1 using the in vitro TbPTR1/LmPTR1 enzyme reporter assay. The experimental procedure consists of monitoring the non-enzymatic reduction reaction of cytochrome-c at 550 nm, related to the reduction reaction of H2B to tetrahydrobiopterin (H4B) by using NADPH as the cofactor. TbPTR1 and LmPTR1 enzyme activity was assayed in a buffer containing 20 mM sodium citrate (pH 6.0) in a final experimental volume equal to 600 µL. The final reaction mixture contained different substrates added in the following order: TbPTR1/LmPTR1 (0.018 µM/0.002 µM) in 20 mM Tris-HCl, glycerol 10% (v/v), pH 7.5; H2B at a final concentration equal to 0.3 µM; cytochrome-c (80 µM); Milli-Q water to a final volume of 600 µL and NADPH to a final concentration of 500 µM. Before the addition of NADPH, the reaction mixture was incubated for 10 min at 30 °C and 80 RPM. To allow the starting of the reaction, NADPH was added and the enzyme reaction was detected for a total time of 10 min at 30 °C, 550 nm. The inhibition profile characterization of compounds 1–3 was performed with a DU-640 spectrophotometer (Beckman Coulter, Brea, CA, USA). Each compound was assayed in duplicate against Tb/LmPTR1 target enzymes in the 0–10–25–50–80–150 µM concentrations range. At the different concentration values, the compounds were added to the reaction mixture (enzyme, H2B, cytochrome-c in 20 mM sodium citrate buffer and Milli-Q water) and incubated for 10 min at 30 °C, 80 RPM. The reaction was initiated by the addition of NADPH (500 µM) and monitored for 10 min at 30 °C, 550 nm. The absorbance values were processed by software analysis and transformed into the corresponding slopes. The percentages of inhibition and the IC50 values were determined.

hERG channel = biological target: T4, hERG channel (Homo sapiens, UniProt Q12809); assay: hERG fluorescence polarisation assay (Predictor); format: binding; details: for inhibition at 10 µM: human
T4 construct: purchased Invitrogen
T4 sequence (Q12809 whole entry): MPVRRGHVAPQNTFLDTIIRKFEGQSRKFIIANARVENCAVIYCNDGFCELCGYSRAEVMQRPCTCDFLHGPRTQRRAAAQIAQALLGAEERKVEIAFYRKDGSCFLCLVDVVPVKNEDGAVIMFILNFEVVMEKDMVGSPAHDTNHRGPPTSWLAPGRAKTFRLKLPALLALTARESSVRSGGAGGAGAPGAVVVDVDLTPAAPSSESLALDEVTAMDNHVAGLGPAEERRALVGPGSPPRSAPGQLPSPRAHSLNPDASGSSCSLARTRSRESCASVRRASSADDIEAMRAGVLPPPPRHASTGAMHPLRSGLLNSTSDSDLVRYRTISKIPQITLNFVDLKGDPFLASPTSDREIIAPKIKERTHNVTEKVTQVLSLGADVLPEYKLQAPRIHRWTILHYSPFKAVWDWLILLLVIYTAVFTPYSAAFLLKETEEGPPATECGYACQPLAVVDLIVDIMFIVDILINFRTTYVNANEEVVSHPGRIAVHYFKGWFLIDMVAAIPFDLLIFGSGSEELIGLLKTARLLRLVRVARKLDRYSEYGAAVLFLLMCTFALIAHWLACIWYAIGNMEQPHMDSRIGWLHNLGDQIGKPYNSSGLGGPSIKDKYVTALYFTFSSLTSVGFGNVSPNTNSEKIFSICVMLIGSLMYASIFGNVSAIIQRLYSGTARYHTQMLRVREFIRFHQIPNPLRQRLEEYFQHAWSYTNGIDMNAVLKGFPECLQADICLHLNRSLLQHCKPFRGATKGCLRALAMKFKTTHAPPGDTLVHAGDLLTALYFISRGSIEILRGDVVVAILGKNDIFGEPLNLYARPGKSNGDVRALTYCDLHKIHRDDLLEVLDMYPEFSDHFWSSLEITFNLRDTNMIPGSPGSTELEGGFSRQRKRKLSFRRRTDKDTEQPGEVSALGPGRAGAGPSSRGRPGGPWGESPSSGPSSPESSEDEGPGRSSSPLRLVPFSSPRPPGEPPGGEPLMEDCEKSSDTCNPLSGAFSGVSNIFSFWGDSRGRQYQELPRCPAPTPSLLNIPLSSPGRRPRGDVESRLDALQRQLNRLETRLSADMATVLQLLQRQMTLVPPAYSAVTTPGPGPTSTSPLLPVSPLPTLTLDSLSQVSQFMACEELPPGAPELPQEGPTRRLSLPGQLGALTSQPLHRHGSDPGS
Description: The assay made use of Invitrogen’s Predictor™ hERG Fluorescence Polarisation Assay. This uses a membrane fraction containing hERG channel (Predictor™ hERG Membrane) and a high-affinity red fluorescent hERG channel ligand, or “tracer” (Predictor™ hERG Tracer Red), whose displacement by test compounds can be determined in a homogenous, Fluorescence Polarisation (FP)-based format.

CYP2C9 = biological target: T5, CYP2C9 (Homo sapiens, UniProt P11712); assay: Cytochrome P450 2C9 assay (P450-Glo); format: in vitro ADME; details: for inhibition at 10 µM: human
T5 construct: purchased Promega; host or cells: baculovirus-infected insect cells
T5 sequence (P11712 whole entry): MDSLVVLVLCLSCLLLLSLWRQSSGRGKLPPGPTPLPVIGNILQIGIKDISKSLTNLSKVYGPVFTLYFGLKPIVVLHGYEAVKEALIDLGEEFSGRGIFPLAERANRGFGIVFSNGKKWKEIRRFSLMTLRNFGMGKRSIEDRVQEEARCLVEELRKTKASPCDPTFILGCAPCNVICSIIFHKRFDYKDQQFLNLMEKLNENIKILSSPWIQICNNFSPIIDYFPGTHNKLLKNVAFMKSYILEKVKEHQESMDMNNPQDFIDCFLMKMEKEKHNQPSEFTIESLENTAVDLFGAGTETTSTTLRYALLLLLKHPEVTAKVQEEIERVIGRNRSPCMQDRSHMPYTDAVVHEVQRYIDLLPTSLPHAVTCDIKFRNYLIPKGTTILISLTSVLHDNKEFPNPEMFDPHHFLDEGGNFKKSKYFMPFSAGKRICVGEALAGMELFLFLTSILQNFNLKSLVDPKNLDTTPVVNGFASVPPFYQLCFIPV
Description: as §1

CYP2C19 = biological target: T6, CYP2C19 (Homo sapiens, UniProt P33261); assay: Cytochrome P450 2C19 assay (P450-Glo); format: in vitro ADME; details: for inhibition at 10 µM: human
T6 construct: purchased Promega; host or cells: baculovirus-infected insect cells
T6 sequence (P33261 whole entry): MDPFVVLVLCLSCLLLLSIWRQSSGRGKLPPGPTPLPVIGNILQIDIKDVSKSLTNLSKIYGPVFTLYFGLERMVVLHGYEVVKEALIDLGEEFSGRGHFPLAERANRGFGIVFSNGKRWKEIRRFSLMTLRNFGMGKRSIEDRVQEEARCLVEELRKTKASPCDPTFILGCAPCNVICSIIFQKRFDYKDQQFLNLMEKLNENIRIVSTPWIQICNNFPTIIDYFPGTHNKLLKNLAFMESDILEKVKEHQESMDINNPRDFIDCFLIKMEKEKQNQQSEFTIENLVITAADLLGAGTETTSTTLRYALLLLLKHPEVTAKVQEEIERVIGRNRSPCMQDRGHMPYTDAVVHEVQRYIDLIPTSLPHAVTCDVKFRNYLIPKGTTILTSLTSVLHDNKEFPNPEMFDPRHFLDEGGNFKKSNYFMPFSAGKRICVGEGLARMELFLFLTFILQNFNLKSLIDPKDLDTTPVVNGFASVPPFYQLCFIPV
Description: as §1

T1 sequence (Q96GD4 whole entry): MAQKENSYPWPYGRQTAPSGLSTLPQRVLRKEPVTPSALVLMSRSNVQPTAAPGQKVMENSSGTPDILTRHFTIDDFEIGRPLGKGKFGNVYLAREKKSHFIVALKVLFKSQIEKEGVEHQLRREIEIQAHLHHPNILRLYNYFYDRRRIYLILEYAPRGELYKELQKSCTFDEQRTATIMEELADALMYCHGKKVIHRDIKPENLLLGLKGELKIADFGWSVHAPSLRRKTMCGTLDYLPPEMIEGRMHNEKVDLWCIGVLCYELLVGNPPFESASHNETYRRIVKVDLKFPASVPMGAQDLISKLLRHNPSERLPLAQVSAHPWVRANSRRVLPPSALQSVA

Row | Structure (SMILES) | inhibition at 10 µM (Aurora B kinase) | IC50 (CYP2D6) | inhibition at 10 µM (CYP2D6) | CC50 [1] | inhibition at 50 µM [2] | % Inhibition TbPTR1 (50 μM) ([3]; 50 μM, compounds 1–3 and control) | IC50 [3] | inhibition at 50 µM ([3]; compounds 1–3 and control) | IC50 (hERG channel) | inhibition at 10 µM (hERG channel) | IC50 (CYP2C9) | inhibition at 10 µM (CYP2C9) | IC50 (CYP2C19) | inhibition at 10 µM (CYP2C19) | % inh. L. infantum (50 μM) [2]
1 | O=C1CC(c2cccc(O)c2)Oc2ccc(O)cc21 (centres unmarked) [Compound 1] | < 15% | 85 µM | < 15% | > 100 µM | 31% | 81% | 31 µM | 81.3% | > 100 µM | 7% | 72 µM | < 15% | 1 µM | 77.2% | –
2 | O=C1CC(c2ccc(O)cc2)Oc2ccc(O)cc21 (centres unmarked) [Compound 2] | < 15% | 94 µM | < 15% | > 100 µM | 29% | – | 133 µM | 17.7% | > 100 µM | 14% | > 100 µM | < 15% | 4 µM | 44.5% | –
3 | O=C1CC(c2ccc(O)c(O)c2)Oc2ccc(O)cc21 (centres unmarked) [Compound 3] | < 15% | > 100 µM | < 15% | > 100 µM | 3% | – | 82 µM | 34.6% | 64 µM | 20% | 4 µM | < 15% | 5 µM | 2.68% | inactive
